{"source": "patent US20260274922A1", "about": "“SYNTHETIC ESTROGEN RECEPTOR (ER)-DERIVED PEPTIDE” (THE TEXAS A&M UNIVERSITY SYSTEM, priority 2023, published 2026)", "key": {"[1]": {"system": "insulin signaling (IRS1, pAKT)", "assay": "Insulin sensitivity in ERα deficient primary mouse hepatocytes", "assay_type": "cell-based", "experimental": "Primary hepatocytes isolation and cell culture. Primary hepatocytes were isolated. Male mice at age of 8-12 weeks were infused with a perfusion buffer A (calcium and magnesium-free HBSS supplemented with 10 mM HEPES, […], 1 mM glucose, and 1% penicillin-streptomycin, pH 7.4) through portal vein for 6-8 min. Then perfusion buffer A was changed to buffer B (calcium and magnesium-free HBSS supplemented with 10 mM HEPES, 1 mM CaCl2), 1 mM glucose, 1% penicillin-streptomycin, and 0.5 mg/mL collagenase II, pH 7.4). […] Liver cells were suspended and passed through a 70 μm cell strainer, followed by centrifuge at 1700 rpm for 2 min. Pellets were resuspended with Percoll at final concentration of 36% and centrifuged at 1800 rpm for 6 min. The hepatocyte pellet was washed and suspended with DMEM supplemented with 10% FBS and 1% penicillin-streptomycin in collagen-coated plates. The HepG2 cell line was purchased from Abcam and cultured with DMEM medium supplemented with 10% FBS and 1% penicillin-streptomycin in collagen-coated plates. The human embryo kidney (HEK) 293 cell line was purchased from Sigma and cultured with DMEM medium supplemented with 10% FBS and 1% penicillin-streptomycin. FBS-free DMEM medium was used to culture cells during the experiments.\n(§1) Co-immunoprecipitation and Western blotting analysis. […] Protein bands were detected using a ChemiDoc image system."}, "IRS1": {"target": "T1, IRS1 (Homo sapiens, UniProt P35568)", "T1 sequence (P35568 1-1242)": "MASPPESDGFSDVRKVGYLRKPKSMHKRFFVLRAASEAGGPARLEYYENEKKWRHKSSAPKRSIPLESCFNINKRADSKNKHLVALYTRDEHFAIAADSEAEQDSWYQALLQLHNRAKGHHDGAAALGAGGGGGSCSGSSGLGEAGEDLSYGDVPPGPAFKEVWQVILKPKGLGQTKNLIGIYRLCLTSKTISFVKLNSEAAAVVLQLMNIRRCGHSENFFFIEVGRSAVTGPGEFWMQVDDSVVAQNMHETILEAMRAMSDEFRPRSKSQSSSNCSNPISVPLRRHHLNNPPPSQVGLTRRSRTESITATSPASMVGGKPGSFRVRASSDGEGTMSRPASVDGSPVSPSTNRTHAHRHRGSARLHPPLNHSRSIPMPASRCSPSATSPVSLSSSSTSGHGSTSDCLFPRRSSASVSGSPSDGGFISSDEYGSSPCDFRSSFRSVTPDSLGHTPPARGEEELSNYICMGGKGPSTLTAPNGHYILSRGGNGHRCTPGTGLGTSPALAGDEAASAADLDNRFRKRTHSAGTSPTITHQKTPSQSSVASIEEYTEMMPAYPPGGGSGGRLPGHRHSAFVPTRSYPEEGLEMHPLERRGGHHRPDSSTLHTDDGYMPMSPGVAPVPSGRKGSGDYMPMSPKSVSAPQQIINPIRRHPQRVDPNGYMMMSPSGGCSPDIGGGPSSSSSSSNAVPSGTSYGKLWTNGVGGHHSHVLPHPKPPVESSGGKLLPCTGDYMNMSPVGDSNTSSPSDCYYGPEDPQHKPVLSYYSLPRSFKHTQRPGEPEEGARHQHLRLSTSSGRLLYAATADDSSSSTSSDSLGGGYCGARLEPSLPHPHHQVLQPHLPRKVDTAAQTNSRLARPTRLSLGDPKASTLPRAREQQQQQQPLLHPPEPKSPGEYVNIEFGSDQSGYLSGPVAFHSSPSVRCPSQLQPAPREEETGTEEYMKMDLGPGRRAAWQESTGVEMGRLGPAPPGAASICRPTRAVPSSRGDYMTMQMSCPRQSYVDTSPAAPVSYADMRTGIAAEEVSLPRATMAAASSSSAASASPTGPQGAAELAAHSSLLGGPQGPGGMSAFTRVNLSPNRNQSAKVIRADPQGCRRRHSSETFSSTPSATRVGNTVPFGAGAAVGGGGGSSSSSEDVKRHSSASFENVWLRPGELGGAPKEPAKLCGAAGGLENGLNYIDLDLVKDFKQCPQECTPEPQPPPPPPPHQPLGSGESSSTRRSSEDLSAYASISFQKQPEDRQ", "assay": "Effect of AF1 peptide on IRS1 ubiquitination in HEK293T cells", "assay_type": "cell-based", "text": "as §1"}, "DKO male mice": {"system": "DKO male mice", "assay": "AF1 peptide treatment of liver-specific IRS1 and IRS2 knockout (DKO) mice", "assay_type": "in vivo, mouse", "experimental": "Animal studies. All animal experiments were performed following procedures approved by the Texas A&M University Institutional Animal Care and Use Committee. Mice are housed at 22-24° C. and maintained on a 12 h light/12 h dark cycle with a standard chow diet (58% calories from carbohydrate, 18% from fat, and 24% from protein, 3.1 kcal/g, with a reduced phytoestrogen content; Teklad Diet) ad libitum. Liver-specific ERα (ERα^LivKO) or ERβ (ERβ^LivKO) knockout mice were generated by crossing ERα or ERβ flox mice (gift from Dr. Yong Xu, Baylor College of Medicine) with Albumin-Cre mice purchased from The Jackson Laboratory (Strain #003574), respectively. Liver IRS1 and IRS2 double knockout (DKO) mice were generated by breeding IRS1 and IRS2 flox (IRS1^L/L::IRS2^L/L) mice with Albumin-Cre mice. Liver IRS1, IRS2, and ERα triple knockout (TKO) mice were generated by crossing DKO mice with ERα^LivKO mice. All mice were on C57B/6J background. Db/db mice were purchased from The Jackson Laboratory (Strain #000697). Female mice at age of 2-month-old underwent a bilateral ovariectomy (OVX) surgery; these mice were used to perform experiments 4 weeks after OVX surgery. All the mice experiments were performed with age- and gender-matched mice with their health status examined daily by the investigators and technicians from Texas A&M University LARR Animal Facility. Littermate controls were used if possible.\nGlucose and insulin tolerance tests. For glucose tolerance tests, mice were fasted for 16 h and intraperitoneally (i.p.) injected with dextrose (1 g/kg body weight for mice fed with regular diet; 0.5 g/kg body weight for db/db mice or mice fed with HFD). For insulin tolerance tests, mice were fasted for 6 h and i.p. injected with insulin solution (1 U/kg body weight for male mice; 0.75 U/kg body weight for female mice). Blood glucose levels were measured using glucometer at indicated time points.\nas §1"}, "[2]": {"details": "ERα deficient primary hepatocytes"}}, "note": "Where no end group is shown, it is not given here. The star is where a group is joined. FITC = O=C1OC2(c3ccc(O)cc3Oc3cc(O)ccc32)c2ccc(NC(=S)*)cc21"}
{"sequence": "YGRKKRRQRRRTKASGMALLHEPLNRPQLKIPLERDSSKPAVYNY ({FITC}-YGRKKRRQRRRTKASGMALLHEPLNRPQLKIPLERDSSKPAVYNY) [AF1 peptide]", "values": [{"measurement": "increase in IRS1 protein levels", "setting": "[1]; [2]", "result": 80, "unit": "%"}, {"measurement": "increase in pAKT-S473 protein levels", "setting": "[1]; [2]", "result": 46, "unit": "%"}, {"measurement": "increase in pAKT-T308 protein levels", "setting": "[1]; [2]", "result": 50, "unit": "%"}, {"measurement": "rescue of ERα deficiency-induced insulin resistance", "setting": "[1]; compared to ERαF/F hepatocytes", "result": "partially rescued"}, {"measurement": "ubiquitination of IRS1", "setting": "IRS1", "result": "attenuated"}, {"measurement": "glucose homeostasis", "setting": "DKO male mice; glucose tolerance test", "result": "significantly improved"}, {"measurement": "insulin sensitivity", "setting": "DKO male mice; insulin tolerance test", "result": "significantly improved"}, {"measurement": "insulin-induced AKT phosphorylation in the liver", "setting": "DKO male mice; liver", "result": "could not be rescued"}, {"measurement": "insulin-stimulated AKT phosphorylation in skeletal muscle and eWAT", "setting": "DKO male mice; skeletal muscle and epididymal white adipose tissue", "result": "partially improved"}]}
